Where a name gives a salt, the structure may show the parent alone.
How the values were obtained:
[1] = target: T1, δ opioid receptor (delta sites) (Cavia porcellus, UniProt A0A286XTF2); assay: Binding to delta sites (radioreceptor binding, 3H-DADLE with unlabelled DAGO); details: guinea pig brain homogenate, 3H-DADLE + 30 nM DAGO, 40 min at 25° C.
T1 construct: performed on fresh guinea pig brain homogenates; from tissue; host or cells: guinea pig whole brain without cerebellum, washed membrane homogenate
T1 sequence (A0A286XTF2 1-366): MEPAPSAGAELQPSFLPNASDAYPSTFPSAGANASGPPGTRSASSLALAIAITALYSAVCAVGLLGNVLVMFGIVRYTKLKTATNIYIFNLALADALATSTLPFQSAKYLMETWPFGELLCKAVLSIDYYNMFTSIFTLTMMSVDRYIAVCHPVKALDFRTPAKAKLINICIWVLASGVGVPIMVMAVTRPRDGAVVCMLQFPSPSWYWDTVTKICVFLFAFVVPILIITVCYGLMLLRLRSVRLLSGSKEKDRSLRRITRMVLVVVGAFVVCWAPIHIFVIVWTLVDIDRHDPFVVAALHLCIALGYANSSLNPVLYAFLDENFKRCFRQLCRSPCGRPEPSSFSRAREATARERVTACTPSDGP
Experimental: (§1) Radio receptor binding to delta, mu and kappa sites is performed on fresh guinea pig brain homogenates prepared according to Kosterlitz (1981). Whole brain, without cerebellum is homogenized in 50 mM Tris-buffer and centrifuged at 49,000×g for 10 min.
(§2) The pellet is then resuspended in the s3me buffer, incubated at 37° C. for 45 min. and centrifuged again.
(§3) 1.9 ml of the final homogenate (1:100 in Tris-pH 7.4 0° C.) is used for the binding assay.
For binding experiments, ^3 H-DADLE, which binds to mu and delta sites, is used in the presence of 30 nM of unlabelled DAGO to prevent mu binding. A concentration of radioligand near KD is used in the binding assays evaluating compounds of the invention. Non-specific binding is determined by addition of Mr 2266, 2.5 μM. The tubes are incubated for 40 min at 25° C. and bound ligand is separated from free by filtration through Whatman GF-G filters. The level of bound radioactivity on the filters is measured by liquid scintillation after solubilization in filtercount. The equilibrium dissociation constant (KD) and the maximum binding capacity (Bmax) are determined from the analysis of saturation curves, while the inhibition constant (Ki) is determined from the analysis of competition experiments (Hill 1910; Scatchard 1949; Cheng and Prusoff 973; Gillan et al 1980).

[2] = target: T2, μ opioid receptor (mu sites) (Cavia porcellus, UniProt A0ACM8Q262); assay: Binding to mu sites (3H-DAGO); details: guinea pig brain homogenate, 40 min at 25° C.
T2 construct: 3H-DAGO (DAMGO) displacement
T2 sequence (A0ACM8Q262 1-400): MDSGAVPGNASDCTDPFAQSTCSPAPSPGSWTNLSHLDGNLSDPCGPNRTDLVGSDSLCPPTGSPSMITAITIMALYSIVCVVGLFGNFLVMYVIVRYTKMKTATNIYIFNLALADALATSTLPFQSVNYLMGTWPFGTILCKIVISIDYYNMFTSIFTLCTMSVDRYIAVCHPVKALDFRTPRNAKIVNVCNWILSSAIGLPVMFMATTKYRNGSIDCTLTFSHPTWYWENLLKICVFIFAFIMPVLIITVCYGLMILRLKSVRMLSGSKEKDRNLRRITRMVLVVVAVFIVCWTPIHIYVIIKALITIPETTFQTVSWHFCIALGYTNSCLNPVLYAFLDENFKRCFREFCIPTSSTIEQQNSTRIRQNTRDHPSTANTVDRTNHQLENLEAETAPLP
Experimental: as §1, §2, §3
Binding to mu sites (Magnan J., 1982)
^3 H-[D-Ala^2, MePhe^4, Gly-Ol^5 ]Enkephalin (^3 H-DAGO), an enkephalin analogue that binds selectively to mu receptor, is added to the biological substrate and incubated at 25° C. for 40 min, filtered through Whatman GF-C filters and washed with ice-cold Tris buffer. The filters are then dried, solubilized in Filtercount and the radioactivity monitored. Non-specific binding is determined in the presence of 10^-6 M naloxone.

[3] = target: T3, κ opioid receptor (kappa sites) (Cavia porcellus, UniProt P41144); assay: Binding to kappa sites (3H-BRL 52537A); details: guinea pig brain homogenate, 40 min at 25° C.
T3 construct: performed on fresh guinea pig brain homogenates; from tissue; host or cells: guinea pig whole brain without cerebellum, washed membrane homogenate
T3 sequence (P41144 whole entry): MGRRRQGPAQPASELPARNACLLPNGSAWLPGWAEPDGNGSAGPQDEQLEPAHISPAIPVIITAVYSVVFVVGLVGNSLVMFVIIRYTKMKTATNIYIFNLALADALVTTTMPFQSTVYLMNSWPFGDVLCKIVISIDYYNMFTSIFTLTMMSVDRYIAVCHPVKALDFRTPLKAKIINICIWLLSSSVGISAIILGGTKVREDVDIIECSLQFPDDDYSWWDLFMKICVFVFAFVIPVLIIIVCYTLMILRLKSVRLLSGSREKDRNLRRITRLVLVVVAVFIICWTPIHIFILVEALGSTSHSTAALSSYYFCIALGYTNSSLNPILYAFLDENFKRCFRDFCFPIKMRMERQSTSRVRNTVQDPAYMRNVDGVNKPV
Experimental: as §1, §2, §3
Final homogenate with solutions of the cold ligand and of the labelled ligand is incubated for 40 min. at 25° C., filtered through Whatman GF-C glass filter discs and washed. The radioactivity bound to the filters is counted by liquid scintillation spectrophotometry.

[4] = tested on: mice (Male Charles River, Swiss Strain); assay: Antinociception, tail-flick test in mice; assay type: in vivo, mouse; details: i.t., 10 min pretreatment
Experimental: The methodology employed is based on that described by D'Amour and Smith, J. Pharmacol. Exp. Ther. 72, 74 (1941).
Male Charles River mice (Swiss Strain) 29-35 g body weight are used.
Animals are allowed food and water ad libitum and are randomized into groups of 10 prior to experimentation.
Test compounds are dissolved in either distilled water or distilled water plus 0.1M AMS and administered by the intrathecal route in a final volume of 5 μl/mouse, according to the method described by Hylden and Wilcox, Eur. J. Pharmacol. 67,313 (1980).
Four hours prior the beginning of experiments, mice are anaesthetized with pentobarbital (80 mg/Kg i.p.) and a caudal cutaneous incision (1 cm) is performed on the back using a disposable 30 gauge 1/2 inch needles mated to a 50 μl luer siringe (Hamilton). The drug are delivered intrathecally between L5 and L6 of spinous process.
Control animals receive […] of the appropriate vehicle alone. Following a pretreatment period of 10 min., the mice are again placed under the heat source and the reaction time redetermined.
Percentage quantal protection is determined as the number of mice in which the reaction time is doubled compared to pretreatment values, expressed as a percentage of the total number of mice in the group.

For `CCN1CC[C@]2(c3cccc(O)c3)Cc3[nH]c4ccccc4c3C[C@H]2C1` (relative stereo) [Example 1, 2-ethyl-4aα-(3-hydroxyphenyl)-1,2,3,4,4a,5,11,11aβ-octahydro indolo[2,3-g]isoquinoline hydrochloride], the Ki [1] was 16.4 nM, the Ki [2] was 2070 nM and the Ki [3] was greater than 1000 nM. The “Antinociception Mouse Tail-Flick ED50” value [4] was 0.010 mg/mouse.

Work on `CN1CC[C@]2(c3cccc(O)c3)Cc3[nH]c4ccccc4c3C[C@H]2C1` (relative stereo) [Example 5, 2-Methyl-4aα-(3-hydroxyphenyl)-1,2,3,4,4a,5,11,11aβ-octahydroindolo[2,3-g]isoquinoline hydrochloride] yielded a Ki [1] of 16 nM, a Ki [2] of 309 nM and a Ki [3] greater than 1000 nM.

`CN1CC[C@]2(c3cccc(O)c3)Cc3c(c4ccccc4n3C)C[C@H]2C1` (relative stereo) [Example 7, 2,6-Dimethyl-4aα-(3-hydroxyphenyl)-1,2,3,4,4a,5,11,11aβ-octahydroindolo[2,3-g]isoquinoline] showed a Ki [1] of 33.6 nM, a Ki [2] of 306 nM and a Ki [3] greater than 1000 nM.

`CN1CC[C@]2(c3cccc(O)c3)Cc3oc4ccccc4c3C[C@H]2C1` (relative stereo) [Example 10, 2-Methyl-4aα-(3-hydroxyphenyl)-1,2,3,4,4a,5, 11, 11aβ-octahydrobenzofuro[2,3-g]isoquinoline] showed a Ki [1] of 10.1 nM, a Ki [2] of 104 nM and a Ki [3] greater than 1000 nM.

Work on `Cc1ccc2[nH]c3c(c2c1)C[C@H]1CN(C)CC[C@]1(c1cccc(O)c1)C3` (relative stereo) [Example 12, 2,9-Dimethyl-4aα-(3-hydroxyphenyl)-1,2,3,4,4a,5,11,11aβ-octahydroindolo[2,3-g]isoquinoline] yielded a Ki [1] of 61.9 nM, a Ki [2] of 678 nM and a Ki [3] greater than 1000 nM.

With `CN1CC[C@]2(c3cccc(O)c3)Cc3[nH]c4c(Cl)cccc4c3C[C@H]2C1` (relative stereo) [Example 16, 2-Methyl-4aα-(3-hydroxyphenyl)-7-chloro-1,2,3,4,4a,5,11,11aβ-octahydroindolo[2,3-g]isoquinoline] the Ki [1] was 16.4 nM, the Ki [2] was 568 nM and the Ki [3] was greater than 1000 nM.

In the case of `CCN1CC[C@]2(c3cccc(O)c3)Cc3[nH]c4ccccc4c3C[C@H]2C1` (single isomer, unassigned) [Example 39, (+)-2-Ethyl-4aα-(3-hydroxyphenyl)-1,2,3,4,4a,5,11,11aβ-octahydroindolo[2,3-g]isoquinoline hydrochloride], the Ki [1] is reported as 6.24 nM, the Ki [2] is reported as 2260 nM and the Ki [3] is reported as greater than 1000 nM.

Reference: patent publication US5441956A, “Hydroisoquinoline derivatives” (Smithkline Beecham Farmaceutici S.p.A., priority 1991, dated 1995)
